The text below walks through data of patent US12233041B2, “Disulfonate stilbenes for use in the treatment of proliferative diseases” (UNIVERSITÉ DE NANTES, priority 2018, dated 2025).

Like-named read-outs stand apart in the source and are kept apart here.

In assay [1] the target is T1, Rad51 (Homo sapiens, UniProt Q06609).
T1 sequence (Q06609 1-339): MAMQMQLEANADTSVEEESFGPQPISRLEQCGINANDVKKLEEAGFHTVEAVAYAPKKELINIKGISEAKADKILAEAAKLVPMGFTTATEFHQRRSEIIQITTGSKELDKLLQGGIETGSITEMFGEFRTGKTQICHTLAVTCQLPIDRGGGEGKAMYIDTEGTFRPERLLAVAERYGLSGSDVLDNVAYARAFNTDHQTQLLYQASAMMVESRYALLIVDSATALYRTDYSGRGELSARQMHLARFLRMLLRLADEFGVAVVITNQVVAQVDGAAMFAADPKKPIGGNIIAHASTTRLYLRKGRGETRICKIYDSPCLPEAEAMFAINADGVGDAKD
Description: DNA invasion by D-loop assay (strand exchange). The format is biochemical. On the procedure: Labeled 100-ssDNA** (1 μM) was incubated with 0.5 μM Rad51 in presence or absence of the indicated amounts of the corresponding molecule in 10 μL of standard reaction buffer containing 20 mM Tris-HCl (pH 8), 1 mM ATP, 1 mM DTT, 1 mM CaCl2) at 37° C. for 20 min. The reaction was initiated by adding supercoiled pPB4.3 DNA (200 μM in bp). After incubation of 30 min at 37° C., the reactions were stopped and deproteinized by a stop solution (10 mM Tris-HCl pH 8, 10 mM MgCl2, 1% SDS, and 1 mg/mL proteinase K. The reaction mixtures were further incubated for 15 min at 37° C. After adding 5-fold loading dye (0.05% bromophenol blue, 8% glycerol, 1 mM EDTA), the reaction products were separated by electrophoresis on 1% agarose gel. The electrophoresis was carried out in 0.5×TAE buffer (20 mM Tris, 10 mM acetic acid and 1 mM EDTA) at 100 V for 2 h. The labeled products (100-ssDNA** and D-loop) were visualized and quantified by the detection of the IRD-700 dye with the 700 nm infrared fluorescent detection channel of an Odyssey Infrared Imager (LI-COR) (Normand, A. et al., Biochemical Pharmacology, October 2014, Vol. 91, No. 3, pp. 293-300).
The “D-loop” in vitro test allows the quantification of the formation of the strand exchange structure (D-loop) and thus the determination of the inhibitory power of a molecule during the strand exchange step of the recombinase mechanism. IC50 measuring the RAD51 protein inhibition in presence of compounds A-1 to A-5, […] and DIDS are then calculated.

Assay [2] has as its target T1, Rad51. Description: RAD51 nucleofilament formation by Bio-Layer Interferometry (BLItz), binding of Rad51 to ssDNA. Conditions: for activity on nucleofilament formation compared with reference molecule BPQ / formation of RAD51 protein nucleofilament (relative binding of RAD51 protein with single-stranded DNA): FIG. 2; for formation of RAD51 protein nucleofilament (relative binding of RAD51 protein with single-stranded DNA): increasing doses of inhibitors; for activity on nucleofilament formation compared with reference molecule DIDS: low dose (5 μM). On the procedure: The binding of Rad51 to ssDNA was monitored and quantified by Bio-Layer Interferometry technology using the BLItz platform (FortéBio Inc.). The procedure includes four steps: (1) the baseline in buffer A containing 1×PBS, 10 mM MgCl2 and 0.0075% Tween20 was recorded for 20 s; (2) loading and binding of Rad51 were measured for 40 s using 1.5 μM Rad51 and 1 mM ATP in buffer A; (3) the dissociation of Rad51 from ssDNA was recorded for 20 s in buffer A; (4) the ssDNA biosensor was regenerated using baths of 50 mM NaOH. Except for the step 2, which used 4 μL drop of the protein sample, the steps 1, 3 and 4 used 250 μL solutions in 0.5 mL tube. The measurement parameters were as follows: room temperature measurement and stirring speed of 2200 rpm. To investigate the effect of CSB and analogs to the ssDNA binding of Rad51, the molecule was included in the protein sample of the step 2 at the indicated concentrations and incubated for 5 min before loading on the biosensor. (Normand, A. et al., “Identification and characterization of human Rad51 inhibitors by screening of an existing drug library.”, Biochemical Pharmacology, October 2014, Vol. 91, No. 3, pp. 293-300).
A test based on interferometry (Blitz®, Fortebio) allows the measure of the association kinetics of RAD51 protein with a single-stranded DNA immobilized on a biosensor support in the presence or absence of an inhibitor. The effect of compounds B-1, B-2, B-3, BPQ and X-4 on RAD51 nucleofilament formation has been evaluated in presence of increasing doses of inhibitors. The results are presented on FIG. 2.
In general terms: Biolayer interferometry detects binding as a change in optical thickness at a sensor tip.

Another assay addresses T2, HsRad51 (Homo sapiens, UniProt Q06609).
T2 sequence (Q06609 1-339): T1 sequence (Q06609 1-339)
Description: RAD51 oligomerization by SDS-PAGE gel after crosslink. The format is biochemical. Conditions: 2.5 μM HsRad51, disuccinimidyl suberate crosslink, SDS-PAGE/Western blot; FIG. 1. On the procedure:
The reaction was performed at room temperature. 2.5 μm HsRad51 was incubated with the indicated concentrations of tested compounds for 10 min in a buffer containing 20 mm sodium phosphate, 50 mm NaCl, 1 mm MgCl 2, and 1 mm ATP. The cross-linking reactions were initiated by the addition of disuccinimidyl suberate (50 μm) and allowed to proceed for 30 min. Reactions were quenched by the addition of Tris-HCl (pH 7.5, final concentration: 50 mm) followed by subsequent incubations for 15 min. The products were then separated by 12% SDS polyacrylamide gel electrophoresis and detected by Western blot with mouse monoclonal anti-Rad51 antibody (NeoMarkers) and anti-mouse Alexa-Fluor 700-conjugated secondary antibody (Molecular Probes, Eugene, OR). The cross-linked dimer was quantified by an Odyssey Infrared Imaging System scanner (Li-Cor Biosciences) (Martinez, S. F. et al., “Targeting human Rad51 by specific DNA aptamers induces inhibition of homologous recombination”, Biochimie, December 2010, Vol. 92, No. 12, pp. 1832-1838).
The SDS-PAGE electrophoresis after crosslink maintains and immobilizes the RAD51 protein complexes and thus allows visualization of the degree of oligomerization (polymer formation) of the RAD51 protein. The effect of RAD51 protein inhibitors B-1, B-2, B-3, DIDS and X-4 on this key step of RAD51 protein recombinase activity has thus been evaluated. The results are presented on FIG. 1.
For orientation: Immunoblotting shows a protein as a band on a membrane.

The subject of assay [3] is recombinant fibroblast line RG37. Nature of the assay: Intracellular homologous recombination (HR), GFP reconstitution after I-SceI cleavage, flow cytometry. In kind it is cell-based. To be noted: RG37 cells, 72 h after pCMV-HA-I-SceI transfection; FIG. 3. As for the experimental part: After transfection with the pCMV-HA-I-SceI plasmid and incubation for 72 h, the cells were collected in PBS and 50 mM EDTA, pelleted and fixed with 2% paraformaledhyde for 20 min. The percentage of GFP-expressing cells was scored by FACS analysis using Cytoflex (Beckman Coulter). At least 3 independent experiments were performed, and HA-I-SceI expression was verified each time by Western blot with rabbit anti-HA antibody (Abcam).
The recombinant fibroblast line RG37 is used to confirm in vitro results (Examples 2-5) in the cellular context. This cellar line comprises two non-functional GFP cassettes, one of which has a unique cleavage site inducible by transfection of a restriction enzyme. After cleavage, which is equivalent to a double-strand break (DSB) of the DNA, the homologous recombination (HR) leads to the reconstitution of a complete GFP cassette thus making the cell fluorescent. The rate of intracellular HR is then determined by measurement in flow cytometry so as to measure the level of HR in cells after treatment with compounds C-3, B-2 and X-2.
In general terms: Flow cytometry measures light scatter and fluorescence of single cells or particles in a stream.

For the next assay, the system named is DU-145 cell line. Description: Clonogenicity test, sensitizing effect with an antineoplastic drug. To be noted: Homo sapiens; DU-145, camptothecin alone; read-out: IC50 (clonogenic survival, camptothecin). In kind it is cell-based. As for the experimental part: Clonogenicity tests are carried out against several model cell lines derived from cancer including prostate cancer (DU-145). Cells are exposed to an anti-cancer agent targeting DNA (cisplatin or camptothecin). Damaged cells are counted and seeded in the presence or in the absence of B-2 in triplicate culture plates. After about two weeks of incubation at 37° C. the number of clones formed is counted. Each cell capable of repairing its lesions will then form a clone. After counting, the percentage of survival will be calculated relative to the control condition for which it is considered that there is 100% survival.
The main interest of RAD51 protein inhibitors is the sensitization of chemo-resistant or radio-resistant cancerous cell lines. Clonogenicity evaluation was carried out on the DU-145 cell line treated with cisplatin treatment in the presence or in the absence of disulfonate stilbene B-2 (RAD51 protein inhibitor).
DU-145 cell line was treated with camptothecin in the presence or in the absence of disulfonate stilbene B-2 (RAD51 protein inhibitor) and the clonogenic cell survival was determined.

Setting [4] is: 0.5 μM Rad51, 1 μM 100-ssDNA, 37° C., read-out: IC50 (RAD51 protein inhibition, D-loop formation).

The term IC50 denotes the concentration at which inhibition is half-maximal. `O=S(=O)([O-])c1cc(I)ccc1/C=C/c1ccc(I)cc1S(=O)(=O)[O-].[K+].[K+]` [B-3, Potassium (E)-6,6′-(ethene-1,2-diyl)bis(3-iodobenzenesulfonate)]: at Rad51 [1] (setting [4]), the IC50 was found to be 34 µM. In addition, on Rad51 [2], the “activity on nucleofilament formation compared with reference molecule BPQ” value is on record as “comparable to or even better”, the “formation of RAD51 protein nucleofilament (relative binding of RAD51 protein with single-stranded DNA)” value is listed as “inhibit” and the “activity on nucleofilament formation compared with reference molecule DIDS” value is reported as “comparable”. Moreover, the “oligomerization state of RAD51 protein” value on HsRad51 is given as “significant reduction”.
`[N-]=[N+]=Nc1ccc(/C=C/c2ccc(N=[N+]=[N-])cc2S(=O)(=O)[O-])c(S(=O)(=O)[O-])c1.[Na+].[Na+]` [B-1, Sodium (E)-6,6′-(ethene-1,2-diyl)bis(3-azidobenzenesulfonate)]: the 50% inhibitory concentration (IC50) on Rad51 [1] (setting [4]) was found to be 21 µM. Moreover, on Rad51 [2], the “activity on nucleofilament formation compared with reference molecule BPQ” value is recorded as “comparable to or even better”, the “formation of RAD51 protein nucleofilament (relative binding of RAD51 protein with single-stranded DNA)” value was “inhibit” and the “activity on nucleofilament formation compared with reference molecule DIDS” value is listed as “comparable”. The “oligomerization state of RAD51 protein” value at HsRad51 is on record as “significant reduction”.
As to `O=C(Nc1ccc(/C=C/c2ccc(NC(=O)Oc3ccccc3)cc2)cc1)Oc1ccccc1` [X-2, Diphenyl (ethene-1,2-diylbis(4,1-phenylene))(E)-dicarbamate, reference compound], the “intracellular HR inhibition” value in assay [3] is “does not lead to any inhibition”.
Take `O=C(Nc1ccc(/C=C/c2ccc(NC(=O)c3ccccc3)cc2S(=O)(=O)O)c(S(=O)(=O)O)c1)c1ccccc1` [A-3, Sodium (E)-6,6′-(ethene-1,2-diyl)bis(3-benzamidobenzenesulfonate)]: at Rad51 [1] (setting [4]), the IC50 is greater than 10 µM.
For `[N-]=[N+]=Nc1ccc(/C=C/c2ccc(N=[N+]=[N-])cc2)cc1` [X-4, (E)-1,2-bis(4-azidophenyl)ethene, reference compound], at Rad51 [2], the “formation of RAD51 protein nucleofilament (relative binding of RAD51 protein with single-stranded DNA)” value was “no inhibitory effect whatsoever”. The “oligomerization state of RAD51 protein” value at HsRad51 is given as “no effect”.
As for `COc1ccc(C(=O)Nc2ccc(/C=C/c3ccc(NC(=O)c4ccc(OC)cc4)cc3S(=O)(=O)O)c(S(=O)(=O)O)c2)cc1` [A-4, Sodium (E)-6,6′-(ethene-1,2-diyl)bis(3-(4-methoxybenzamido)benzenesulfonate)], the IC50 at Rad51 [1] (setting [4]) worked out at 6 µM.
As for `CC[C@@]1(O)C(=O)OCc2c1cc1n(c2=O)Cc2cc3ccccc3nc2-1` [camptothecin, reference compound], in the assay on DU-145 cell line, the IC50 was found to be 0.098 µM.
`Cc1ccc(S(=O)(=O)Nc2ccc(/C=C/c3ccc(NS(=O)(=O)c4ccc(C)cc4)cc3S(=O)(=O)O)c(S(=O)(=O)O)c2)cc1` [S-2, Sodium (E)-6,6′-(ethene-1,2-diyl)bis(3-((4-methylphenyl)sulfonamido)benzenesulfonate)]: the IC50 at Rad51 [1] (setting [4]) is 29 µM.
In the case of `O=S(=O)(O)c1cc(NS(=O)(=O)c2ccccc2)ccc1/C=C/c1ccc(NS(=O)(=O)c2ccccc2)cc1S(=O)(=O)O` [S-1, Sodium (E)-6,6′-(ethene-1,2-diyl)bis(3-(phenylsulfonamido)benzenesulfonate)], the IC50 at Rad51 [1] (setting [4]) was determined as 41 µM.
`O=C(Nc1ccc(/C=C/c2ccc(NC(=O)Oc3ccccc3)cc2S(=O)(=O)[O-])c(S(=O)(=O)[O-])c1)Oc1ccccc1.[Na+].[Na+]` [C-3, Sodium (E)-6,6′-(ethene-1,2-diyl)bis(3-((phenoxycarbonyl)amino)benzenesulfonate)] came in with an IC50 on Rad51 [1] of 2 µM. Besides, the “intracellular HR inhibition” value in assay [3] is reported as “significant inhibitory effect”.
